Common to all, as to experiment: biochemical
Holding throughout (parameters): Invitrogen kinase panel: Z'Lyte activity (ATP at Km) or LanthaScreen competitive ATP-site binding, percent inhibition

In one assay the target is T1, ERK2 (Homo sapiens, UniProt P28482).
T1 construct: gene MAPK1

Another assay addresses Fgr (Homo sapiens, UniProt P09769).
A further assay concerns the target T2, Flt3 (Homo sapiens, UniProt P36888).
T2 sequence (P36888 1-993): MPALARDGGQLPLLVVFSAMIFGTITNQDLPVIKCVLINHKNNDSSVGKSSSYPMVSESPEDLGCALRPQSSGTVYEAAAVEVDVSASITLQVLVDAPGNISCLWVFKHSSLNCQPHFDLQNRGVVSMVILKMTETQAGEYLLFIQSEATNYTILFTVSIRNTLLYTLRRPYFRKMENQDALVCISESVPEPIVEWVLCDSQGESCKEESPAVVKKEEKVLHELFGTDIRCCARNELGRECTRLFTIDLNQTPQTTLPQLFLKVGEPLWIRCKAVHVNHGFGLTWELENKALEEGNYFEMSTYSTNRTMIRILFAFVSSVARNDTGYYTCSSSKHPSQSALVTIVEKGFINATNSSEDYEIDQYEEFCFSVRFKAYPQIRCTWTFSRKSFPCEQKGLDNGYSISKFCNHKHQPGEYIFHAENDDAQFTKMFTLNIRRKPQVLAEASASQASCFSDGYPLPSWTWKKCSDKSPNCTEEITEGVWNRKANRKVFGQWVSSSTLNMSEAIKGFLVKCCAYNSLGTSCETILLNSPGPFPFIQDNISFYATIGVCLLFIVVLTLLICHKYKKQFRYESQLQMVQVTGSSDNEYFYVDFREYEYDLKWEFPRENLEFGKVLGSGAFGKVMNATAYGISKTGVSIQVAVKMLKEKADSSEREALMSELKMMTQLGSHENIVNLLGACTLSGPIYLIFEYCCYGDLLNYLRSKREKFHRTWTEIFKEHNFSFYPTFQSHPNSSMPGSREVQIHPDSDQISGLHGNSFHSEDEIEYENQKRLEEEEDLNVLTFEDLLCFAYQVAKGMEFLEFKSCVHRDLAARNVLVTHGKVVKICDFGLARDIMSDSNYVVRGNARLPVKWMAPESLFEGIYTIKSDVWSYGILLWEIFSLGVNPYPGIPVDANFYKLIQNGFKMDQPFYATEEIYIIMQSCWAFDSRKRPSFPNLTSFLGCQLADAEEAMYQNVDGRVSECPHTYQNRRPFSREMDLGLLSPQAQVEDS

The target of another assay is T3, GSK3_beta (Homo sapiens, UniProt P49841).
T3 construct: gene GSK3B

For a further assay, the target named is T4, TBK1 (Homo sapiens, UniProt Q9UHD2).
T4 sequence (Q9UHD2 1-729): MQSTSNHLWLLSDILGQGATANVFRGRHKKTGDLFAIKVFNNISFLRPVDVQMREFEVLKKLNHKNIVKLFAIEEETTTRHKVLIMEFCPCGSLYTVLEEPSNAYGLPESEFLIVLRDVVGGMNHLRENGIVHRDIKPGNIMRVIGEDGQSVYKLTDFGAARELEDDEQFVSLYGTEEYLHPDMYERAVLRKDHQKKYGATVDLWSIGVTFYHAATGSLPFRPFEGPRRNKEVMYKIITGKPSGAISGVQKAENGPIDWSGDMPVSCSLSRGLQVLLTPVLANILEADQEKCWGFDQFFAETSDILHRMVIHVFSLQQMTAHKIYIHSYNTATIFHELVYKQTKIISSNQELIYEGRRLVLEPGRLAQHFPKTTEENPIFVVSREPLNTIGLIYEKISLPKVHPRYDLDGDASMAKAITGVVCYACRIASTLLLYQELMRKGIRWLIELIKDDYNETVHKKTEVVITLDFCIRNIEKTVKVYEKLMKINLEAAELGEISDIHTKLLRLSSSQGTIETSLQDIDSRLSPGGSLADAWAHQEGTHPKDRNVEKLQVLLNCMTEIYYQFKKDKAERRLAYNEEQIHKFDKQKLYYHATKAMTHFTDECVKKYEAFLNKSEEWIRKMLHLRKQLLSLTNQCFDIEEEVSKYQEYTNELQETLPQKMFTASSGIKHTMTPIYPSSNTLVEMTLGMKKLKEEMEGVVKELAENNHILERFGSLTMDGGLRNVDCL

T1 sequence (P28482 whole entry): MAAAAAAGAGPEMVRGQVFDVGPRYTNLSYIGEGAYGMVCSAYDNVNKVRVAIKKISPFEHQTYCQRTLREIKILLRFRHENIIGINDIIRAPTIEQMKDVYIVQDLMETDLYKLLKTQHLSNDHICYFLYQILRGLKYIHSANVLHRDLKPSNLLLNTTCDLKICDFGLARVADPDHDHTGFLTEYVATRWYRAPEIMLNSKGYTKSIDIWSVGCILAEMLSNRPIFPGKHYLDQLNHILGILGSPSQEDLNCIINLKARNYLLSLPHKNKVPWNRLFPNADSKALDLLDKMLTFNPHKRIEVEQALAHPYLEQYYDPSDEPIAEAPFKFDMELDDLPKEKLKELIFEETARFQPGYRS
Fgr, sequence (P09769 whole entry): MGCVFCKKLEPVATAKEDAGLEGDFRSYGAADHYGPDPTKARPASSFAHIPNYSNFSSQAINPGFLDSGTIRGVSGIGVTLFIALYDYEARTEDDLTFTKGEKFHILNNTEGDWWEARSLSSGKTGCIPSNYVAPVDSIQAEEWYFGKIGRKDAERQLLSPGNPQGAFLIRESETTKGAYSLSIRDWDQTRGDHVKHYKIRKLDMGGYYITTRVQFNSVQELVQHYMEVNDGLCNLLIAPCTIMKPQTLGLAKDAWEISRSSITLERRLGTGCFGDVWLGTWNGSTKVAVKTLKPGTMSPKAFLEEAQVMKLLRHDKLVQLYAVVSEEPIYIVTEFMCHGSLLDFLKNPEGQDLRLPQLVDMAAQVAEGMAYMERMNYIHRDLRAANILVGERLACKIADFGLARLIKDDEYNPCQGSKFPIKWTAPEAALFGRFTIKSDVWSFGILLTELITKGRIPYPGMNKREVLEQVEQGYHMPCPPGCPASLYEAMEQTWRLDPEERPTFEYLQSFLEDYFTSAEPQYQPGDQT
T3 sequence (P49841 whole entry): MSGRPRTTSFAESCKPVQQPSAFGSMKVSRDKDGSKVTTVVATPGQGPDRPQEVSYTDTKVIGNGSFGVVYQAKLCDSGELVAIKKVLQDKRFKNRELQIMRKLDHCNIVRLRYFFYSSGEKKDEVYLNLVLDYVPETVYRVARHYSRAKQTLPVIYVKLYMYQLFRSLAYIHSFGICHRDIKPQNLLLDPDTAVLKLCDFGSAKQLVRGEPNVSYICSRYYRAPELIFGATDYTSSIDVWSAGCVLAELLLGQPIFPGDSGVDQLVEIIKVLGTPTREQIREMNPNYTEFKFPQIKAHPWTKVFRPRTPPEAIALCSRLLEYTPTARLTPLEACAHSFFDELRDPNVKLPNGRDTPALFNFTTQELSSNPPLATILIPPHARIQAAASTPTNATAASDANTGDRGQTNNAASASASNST

The inhibition is the drop in the measured response relative to a control, in per cent. In the case of `CCOC(=O)Nc1cccc2c(Oc3ncccc3-c3ccnc(N[C@H]4CCCNC4)n3)c(C)ccc12` [G-1749], the inhibition at 1 µM on ERK2 was 6%; on Fgr it was 1.5%; at Flt3 it was 8%; on GSK3_beta, 0.5%; at TBK1, -0.5%.

Take `CC#CC(=O)Nc1cccc2c(Oc3ncccc3-c3ccnc(N[C@H]4CCCNC4)n3)c(C)ccc12` [G-7658]: the inhibition at 1 µM turned out to be 2% at ERK2; 6% on Fgr; 16.5% on Flt3; 7.5% on GSK3_beta; 0% on TBK1.

With `O=c1cc(-c2n[nH]c3ncc(-c4c(F)cccc4F)cc23)nc(N2CCC(O)CC2)[nH]1` [G-9807], the inhibition at 1 µM on ERK2 amounted to 78.3%; on Fgr, 77.1%; at Flt3, 98.2%; on GSK3_beta, 99.1%; on TBK1, 95.7%.

(Values after article PMC7736581, “Activation of the IRE1 RNase through remodeling of the kinase front pocket by ATP-competitive ligands” (Nature Communications, 2020).)
